The target in experiment [1] is T1, human GIP receptor (Homo sapiens, UniProt P48546).
T1 construct: host or cells: COS-7 (transient, calcium phosphate; pCMV-Script vector)
T1 sequence (P48546 22-466): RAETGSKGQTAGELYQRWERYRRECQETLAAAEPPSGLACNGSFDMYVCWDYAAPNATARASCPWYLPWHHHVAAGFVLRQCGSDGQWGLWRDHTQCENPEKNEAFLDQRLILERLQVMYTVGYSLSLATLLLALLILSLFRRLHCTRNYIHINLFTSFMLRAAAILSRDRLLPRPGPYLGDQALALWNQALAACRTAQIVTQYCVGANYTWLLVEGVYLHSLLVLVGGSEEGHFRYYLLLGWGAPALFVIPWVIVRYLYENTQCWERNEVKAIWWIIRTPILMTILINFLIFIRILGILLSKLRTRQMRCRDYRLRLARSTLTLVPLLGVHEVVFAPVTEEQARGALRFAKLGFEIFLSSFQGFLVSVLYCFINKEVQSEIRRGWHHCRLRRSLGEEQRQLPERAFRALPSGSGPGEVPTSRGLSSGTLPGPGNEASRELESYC
Put plainly: cAMP accumulation assay (HitHunter cAMP XS) in transiently transfected COS-7 cells expressing the human GIP receptor. In kind it is cell-based. The note with it: for Emax at 10 µM: COS-7, read-out: Emax (10 μM), GIP receptor; for fold (fold change of native GIP), GIP receptor: EC50 relative to native GIP. The procedure:
(§1) The day after, the cells were washed twice with Hepes buffered saline (HBS) buffer and incubated with HBS and 1 mM 3-isobutyl-1-methylxanthine (IBMX) for 30 min at 37° C. Ligands were added and incubated for 30 min at 37° C. The HitHunter™ cAMP XS assay (DiscoveRx) was carried out according to the manufacturer's instructions.

Experiment [2] concerns bone resorption (serum C-terminal cross-linking telopeptide of type I collagen, CTX). Put plainly: Human study 1: bone resorption by serum CTX after subcutaneous injection of GIP or GLP-2. In kind it is in vivo. To be noted: for reduction in bone resorption (CTX): 200 μg GIP and 800 μg GLP-2, each alone, s.c., restated in Example 4; for bone resorption (CTX), maximum effect, % of base line: healthy young men. The procedure: Method: Eight healthy young men were enrolled. […] Participants arrived in the morning (fasted overnight) and received the injection around 8.30 a.m. Blood samples were collected before (−25 and −10 min) and every 30 minutes after injection (30, 60, 90, 120, 180 and 240 min). After last participant's last visit, bone resorption was determined by measurements of serum C-terminal cross-linking telopeptide of type I collagen (CTX; IDS Immunodiagnostic Systems GmbH, Frankfurt am Main, Germany)

The target of experiment [3] is T2, human GLP-2 receptor (Homo sapiens, UniProt O95838).
T2 construct: host or cells: COS-7 (transient, calcium phosphate; pCMV-Script vector)
T2 sequence (O95838 1-553): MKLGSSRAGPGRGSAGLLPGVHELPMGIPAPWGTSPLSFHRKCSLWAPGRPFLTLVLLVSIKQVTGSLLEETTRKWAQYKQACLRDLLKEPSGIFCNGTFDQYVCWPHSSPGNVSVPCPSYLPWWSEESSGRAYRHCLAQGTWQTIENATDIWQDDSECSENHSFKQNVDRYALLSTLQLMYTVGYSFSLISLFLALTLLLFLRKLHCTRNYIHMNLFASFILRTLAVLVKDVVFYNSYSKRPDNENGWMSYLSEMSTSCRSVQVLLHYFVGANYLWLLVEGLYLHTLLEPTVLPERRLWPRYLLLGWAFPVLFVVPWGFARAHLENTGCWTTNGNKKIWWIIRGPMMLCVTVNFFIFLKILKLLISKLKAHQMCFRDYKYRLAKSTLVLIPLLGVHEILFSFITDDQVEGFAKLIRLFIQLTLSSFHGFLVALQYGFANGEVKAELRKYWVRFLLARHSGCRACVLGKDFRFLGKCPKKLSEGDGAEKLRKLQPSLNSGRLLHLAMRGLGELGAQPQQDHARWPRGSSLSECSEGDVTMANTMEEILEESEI
Put plainly: cAMP accumulation assay (HitHunter cAMP XS) in transiently transfected COS-7 cells expressing the human GLP-2 receptor. In kind it is cell-based. The note with it: for Emax at 10 µM: COS-7, read-out: Emax (10 μM), GLP-2 receptor; for fold (fold change of native GLP-2), GLP-2 receptor: EC50 relative to native GLP-2; for EC50 / logEC50, GLP-2 receptor: cAMP, COS-7; for logEC50, GLP-2 receptor: log value. The procedure: as §1

The test system of experiment [4] is mouse mesenchymal osteoblast precursor cell line KS483. The experiment is described as follows: Osteoblast differentiation assay: intracellular alkaline phosphatase activity (ALP) at day 8. In kind it is cell-based. To be noted: 1 μM, day 8, KS483 cells, mean±sem, n=6. The procedure:
Aim: Testing the effects of 2 test compounds on differentiation and activity of osteoblasts in vitro in a preliminary set-up.
Method: One concentration of each test compound (1 μM) is tested. Effects on osteoblast differentiation are studied using a mouse mesenchymal osteoblast precursor cell line KS483. The cells are cultured on plastic surface in 96-well plates for 8 days, allowing them to differentiate into mature bone-forming osteoblasts. Baseline with vehicle • 1. Compound 3: Vehicle • 2. Compound 5: GIP-GLP-2 agonist 3 (SEQ ID NO:3) • 3. Compound 6: GIP-GLP-2 agonist 19 (SEQ ID NO:19)
In osteoblast differentiation assay: Intracellular alkaline phosphatase activity (ALP) at day 8 as an index of the number of mature osteoblasts formed.

The mark [5] stands for this setting: logEC50, GIP receptor, Table 1, log value, cAMP, COS-7.
Where [6] appears, read: logEC50, GLP-2 receptor, Table 1.

Here are results for six molecules from patent publication US11725037B2, “Peptide dual agonists of GIPR and GLP2R” (University of Copenhagen, priority 2017, dated 2023).

Where two headings read alike, the source gives them in different places. Ends that are not written are not given here.

For `CC[C@H](C)[C@H](NC(=O)[C@H](Cc1ccccc1)NC(=O)[C@H](CC(=O)O)NC(=O)[C@H](CCCNC(=N)N)NC(=O)[C@H](C)NC(=O)[C@H](C)NC(=O)[C@H](CC(C)C)NC(=O)[C@H](CC(N)=O)NC(=O)[C@H](CC(=O)O)NC(=O)[C@H](CC(C)C)NC(=O)[C@@H](NC(=O)[C@@H](NC(=O)[C@H](CC(N)=O)NC(=O)[C@H](CCSC)NC(=O)[C@H](CCC(=O)O)NC(=O)[C@H](CC(=O)O)NC(=O)[C@H](CO)NC(=O)[C@H](Cc1ccccc1)NC(=O)[C@H](CO)NC(=O)CNC(=O)[C@H](CC(=O)O)NC(=O)[C@H](C)NC(=O)[C@@H](N)Cc1c[nH]cn1)[C@@H](C)O)[C@@H](C)CC)C(=O)N[C@@H](CC(N)=O)C(=O)N[C@@H](Cc1c[nH]c2ccccc12)C(=O)N[C@@H](CC(C)C)C(=O)N[C@H](C(=O)N[C@@H](CCC(N)=O)C(=O)N[C@H](C(=O)N[C@@H](CCCCN)C(=O)N[C@H](C(=O)N[C@H](C(=O)N[C@@H](CC(=O)O)C(=O)O)[C@@H](C)O)[C@@H](C)CC)[C@@H](C)O)[C@@H](C)CC` [GLP-2, reference compound], the Emax at 10 µM in experiment [1] amounted to 22%. This molecule also registered an EC50 in experiment [1] (EC50(nM), GIP receptor, Table 1, cAMP, COS-7) of 56 nM. The “reduction in bone resorption (CTX)” value in experiment [2] is reported as around 50%. Further, the “bone resorption (CTX), maximum effect, % of base line” value in experiment [2] (human GLP-2 800 μg s.c., 180 min after administration) is listed as 63.4±3.4 % of base line.
For `CC[C@H](C)[C@H](NC(=O)[C@H](Cc1ccccc1)NC(=O)[C@H](CC(=O)O)NC(=O)[C@H](CCCNC(=N)N)NC(=O)[C@H](C)NC(=O)[C@H](C)NC(=O)[C@H](CC(C)C)NC(=O)[C@H](CC(N)=O)NC(=O)[C@H](CC(=O)O)NC(=O)[C@H](CC(C)C)NC(=O)[C@@H](NC(=O)[C@@H](NC(=O)[C@H](CO)NC(=O)[C@H](Cc1ccc(O)cc1)NC(=O)[C@H](CC(=O)O)NC(=O)[C@H](CO)NC(=O)[C@@H](NC(=O)[C@H](Cc1ccccc1)NC(=O)[C@@H](NC(=O)CNC(=O)[C@H](CC(=O)O)NC(=O)[C@H](C)NC(=O)[C@@H](N)Cc1c[nH]cn1)[C@@H](C)O)[C@@H](C)CC)[C@@H](C)O)[C@@H](C)CC)C(=O)N[C@@H](CC(N)=O)C(=O)N[C@@H](Cc1c[nH]c2ccccc12)C(=O)N[C@@H](CC(C)C)C(=O)N[C@H](C(=O)N[C@@H](CCC(N)=O)C(=O)N[C@H](C(=O)N[C@@H](CCCCN)C(=O)N[C@H](C(=O)N[C@H](C(=O)N[C@@H](CC(=O)O)C(=O)O)[C@@H](C)O)[C@@H](C)CC)[C@@H](C)O)[C@@H](C)CC` [Co-agonist 3], the Emax at 10 µM in experiment [1] and in experiment [3] was 100% each time. Also, in experiment [1] (Table 1), the “potency (and efficacy) on the GIP receptor compared with native GIP, in words” value was “same potency as native GIP(1-42)”. In experiment [1] (Table 1), the “fold (fold change of native GIP), GIP receptor” value (shortened to “fold (fold change of native GIP)”) is reported as 1.2 fold. Also, the EC50 in experiment [1] (setting [5]) is 0.107 nM; in experiment [3] (setting [6]), 21.4 nM. Also, the “fold (fold change of native GLP-2), GLP-2 receptor” value in experiment [3] (Table 1) is on record as 18 fold. Moreover, the “ALP activity compared to vehicle” value in experiment [4] was found to be 112±5.6%.
Consider `CC[C@H](C)[C@H](NC(=O)[C@H](Cc1ccccc1)NC(=O)[C@H](CC(=O)O)NC(=O)[C@H](CCCNC(=N)N)NC(=O)[C@H](C)NC(=O)[C@H](C)NC(=O)[C@H](CC(C)C)NC(=O)[C@H](CC(N)=O)NC(=O)[C@H](CC(=O)O)NC(=O)[C@H](CC(C)C)NC(=O)[C@@H](NC(=O)[C@@H](NC(=O)[C@H](CO)NC(=O)[C@H](Cc1ccc(O)cc1)NC(=O)[C@H](CC(=O)O)NC(=O)[C@H](CO)NC(=O)[C@@H](NC(=O)[C@H](Cc1ccccc1)NC(=O)[C@@H](NC(=O)CNC(=O)[C@H](CC(=O)O)NC(=O)[C@H](C)NC(=O)[C@@H](N)Cc1c[nH]cn1)[C@@H](C)O)[C@@H](C)CC)[C@@H](C)O)[C@@H](C)CC)C(=O)N[C@@H](CC(N)=O)C(=O)N[C@@H](Cc1c[nH]c2ccccc12)C(=O)N[C@@H](CC(C)C)C(=O)N[C@H](C(=O)N[C@@H](CCC(N)=O)C(=O)N[C@H](C(=O)N[C@@H](CCCCN)C(=O)NCC(=O)N[C@@H](CCCCN)C(=O)N[C@@H](CCCCN)C(=O)O)[C@@H](C)O)[C@@H](C)CC` [Co-agonist 19], for which the Emax at 10 µM stood at 93% in experiment [1] and 91% in experiment [3]. Further, the “potency (and efficacy) on the GIP receptor compared with native GIP, in words” value in experiment [1] (Table 1) was “almost the same potency and efficacy”. In experiment [1] (setting [5]), the response was half-maximal at 0.251 nM (EC50). The “potency and efficacy on the GLP-2R compared with native GLP-2, in words” value in experiment [3] (Table 1) was “almost the same potency and efficacy”. For the same molecule, in experiment [4], the “ALP activity compared to vehicle” value is recorded as 115±8.9%.
As to `CC[C@H](C)[C@H](NC(=O)[C@H](CO)NC(=O)[C@H](Cc1ccc(O)cc1)NC(=O)[C@H](CC(=O)O)NC(=O)[C@H](CO)NC(=O)[C@@H](NC(=O)[C@H](Cc1ccccc1)NC(=O)[C@@H](NC(=O)CNC(=O)[C@H](CCC(=O)O)NC(=O)[C@H](C)NC(=O)[C@@H](N)Cc1ccc(O)cc1)[C@@H](C)O)[C@@H](C)CC)C(=O)N[C@@H](C)C(=O)N[C@@H](CCSC)C(=O)N[C@@H](CC(=O)O)C(=O)N[C@@H](CCCCN)C(=O)N[C@H](C(=O)N[C@@H](Cc1c[nH]cn1)C(=O)N[C@@H](CCC(N)=O)C(=O)N[C@@H](CCC(N)=O)C(=O)N[C@@H](CC(=O)O)C(=O)N[C@@H](Cc1ccccc1)C(=O)N[C@H](C(=O)N[C@@H](CC(N)=O)C(=O)N[C@@H](Cc1c[nH]c2ccccc12)C(=O)N[C@@H](CC(C)C)C(=O)N[C@@H](CC(C)C)C(=O)N[C@@H](C)C(=O)N[C@@H](CCC(N)=O)C(=O)N[C@@H](CCCCN)C(=O)NCC(=O)N[C@@H](CCCCN)C(=O)N[C@@H](CCCCN)C(=O)N[C@@H](CC(N)=O)C(=O)N[C@@H](CC(=O)O)C(=O)N[C@@H](Cc1c[nH]c2ccccc12)C(=O)N[C@@H](CCCCN)C(=O)N[C@@H](Cc1c[nH]cn1)C(=O)N[C@@H](CC(N)=O)C(=O)N[C@H](C(=O)N[C@H](C(=O)N[C@@H](CCC(N)=O)C(=O)O)[C@@H](C)O)[C@@H](C)CC)C(C)C)[C@@H](C)CC` [GIP, reference compound], the “logEC50, GLP-2 receptor” value in experiment [3] (Table 1) and in experiment [3] (Table 2) was “no activation” in each case. In experiment [2], the “reduction in bone resorption (CTX)” value is listed as around 50%. In addition, the “bone resorption (CTX), maximum effect, % of base line” value in experiment [2] (human GIP 200 μg s.c., 90 min after injection) is recorded as 56.2±11.2 % of base line.
In the case of “HAEGSFISDYSTILDNLAARDFINWLIQTKITD [Co-agonist 4]”, the Emax at 10 µM in experiment [1] turned out to be 83%; in experiment [3], 90%. Also, the “fold (fold change of native GIP)” value in experiment [1] (Table 1) was determined as 427 fold. The EC50 is 38 nM in experiment [1] (setting [5]); 25 nM in experiment [3] (EC50(nM), GLP-2 receptor, Table 1); 25.7 nM in experiment [3] (setting [6]). Also, the “fold (fold change of native GLP-2), GLP-2 receptor” value in experiment [3] (Table 1) turned out to be 21 fold.
“HAEGTFISDYSIAMDKLAARDFINWLIQTKITD [Co-agonist 7]” had an EC50 in experiment [1] of 25.7 nM. Also, the Emax at 10 µM turned out to be 92% in experiment [1] and 78% in experiment [3]. Besides, in experiment [1] (Table 1), the “fold (fold change of native GIP)” value is 292 fold. In addition, in experiment [3] (Table 1), the “fold (fold change of native GLP-2), GLP-2 receptor” value stood at 293 fold.
